Molecular target: ATP-binding cassette sub-family C member 2 (Homo sapiens, UniProt Q92887)
Assay: TP_TRANSPORTER: secretion into apical vacuoles in Hep G2 cells
Assay type: functional, cell-based
Conditions: hepg2

ATP-binding cassette sub-family C member 2, sequence (Q92887 whole entry): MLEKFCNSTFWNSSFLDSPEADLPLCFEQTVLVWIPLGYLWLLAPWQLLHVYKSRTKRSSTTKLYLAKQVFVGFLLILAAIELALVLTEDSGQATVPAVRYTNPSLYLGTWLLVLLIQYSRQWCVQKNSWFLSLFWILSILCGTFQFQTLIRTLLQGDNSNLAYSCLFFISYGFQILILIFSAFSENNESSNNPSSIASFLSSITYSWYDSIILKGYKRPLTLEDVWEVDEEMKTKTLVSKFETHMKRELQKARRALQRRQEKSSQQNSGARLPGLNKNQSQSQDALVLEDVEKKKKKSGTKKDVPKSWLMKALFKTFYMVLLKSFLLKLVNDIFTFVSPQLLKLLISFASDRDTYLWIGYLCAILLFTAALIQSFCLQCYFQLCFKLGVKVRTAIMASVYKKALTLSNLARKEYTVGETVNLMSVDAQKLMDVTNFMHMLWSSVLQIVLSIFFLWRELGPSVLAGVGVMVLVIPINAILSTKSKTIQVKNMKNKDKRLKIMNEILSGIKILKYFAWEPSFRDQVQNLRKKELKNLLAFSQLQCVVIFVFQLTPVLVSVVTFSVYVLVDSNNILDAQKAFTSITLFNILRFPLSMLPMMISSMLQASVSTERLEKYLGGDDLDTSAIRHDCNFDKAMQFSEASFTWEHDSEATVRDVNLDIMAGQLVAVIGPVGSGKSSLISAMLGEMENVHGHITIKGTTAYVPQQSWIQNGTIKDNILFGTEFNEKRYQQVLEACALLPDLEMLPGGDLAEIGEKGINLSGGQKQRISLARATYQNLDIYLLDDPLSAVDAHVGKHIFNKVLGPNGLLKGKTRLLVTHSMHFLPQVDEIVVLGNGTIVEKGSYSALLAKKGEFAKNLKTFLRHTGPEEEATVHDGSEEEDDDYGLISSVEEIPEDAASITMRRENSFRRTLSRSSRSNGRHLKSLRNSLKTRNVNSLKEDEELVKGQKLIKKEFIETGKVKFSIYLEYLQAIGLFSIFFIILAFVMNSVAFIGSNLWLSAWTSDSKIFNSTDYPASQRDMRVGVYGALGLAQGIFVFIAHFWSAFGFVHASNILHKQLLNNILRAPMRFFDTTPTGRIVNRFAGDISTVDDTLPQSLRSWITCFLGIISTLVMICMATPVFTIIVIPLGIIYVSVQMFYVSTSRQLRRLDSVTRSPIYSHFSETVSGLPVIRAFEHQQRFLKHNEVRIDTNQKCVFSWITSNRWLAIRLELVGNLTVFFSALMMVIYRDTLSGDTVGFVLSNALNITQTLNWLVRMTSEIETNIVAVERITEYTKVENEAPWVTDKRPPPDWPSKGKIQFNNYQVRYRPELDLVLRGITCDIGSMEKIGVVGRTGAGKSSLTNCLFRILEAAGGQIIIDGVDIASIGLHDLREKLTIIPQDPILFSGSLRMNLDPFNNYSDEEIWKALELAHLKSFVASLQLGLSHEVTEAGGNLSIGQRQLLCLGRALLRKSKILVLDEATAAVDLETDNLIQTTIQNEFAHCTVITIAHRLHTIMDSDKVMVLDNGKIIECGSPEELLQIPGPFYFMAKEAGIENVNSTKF

O=C1OC2(c3ccc(O)cc3Oc3cc(O)ccc32)c2ccccc21 [FLUORESCEIN]
Activity: substrate [+]

CC(CCC(=O)NCC(=O)Nc1ccc(-c2c3ccc(=O)cc-3oc3cc(O)ccc23)c(C(=O)O)c1)[C@H]1CC[C@H]2[C@@H]3[C@H](O)CC4C[C@H](O)CC[C@]4(C)[C@H]3C[C@H](O)[C@]12C (some centres undefined)
Activity: substrate [+]

Cc1ccc(N(CC(=O)O)CC(=O)O)c(OCCOc2cc(-c3c4cc(Cl)c(=O)cc-4oc4cc(O)c(Cl)cc34)ccc2N(CC(=O)O)CC(=O)O)c1
Activity: substrate [+]

CC(CCC(=O)NC(CCCCNc1ccc([N+](=O)[O-])c2nonc12)COO)[C@H]1CC[C@H]2[C@@H]3[C@H](O)CC4C[C@H](O)CC[C@]4(C)[C@H]3CC[C@]12C (some centres undefined)
Activity: substrate [+]
